Measurements as given in patent US20080318792A1, “Extension of pollination period” (priority 2007, published 2008).
Where a name gives a salt, the structure may show the parent alone.

System: Hughes 1883 hybrid corn seed
Assay: Soil germination/emergence of corn seed treated with different forms of ABA in slurry
Format: in vivo
Conditions: 25 g/cwt as free acid
Description: Three forms of ABA were evaluated in this experiment 1) free acid, 2) ammonium salt, and 3) sodium salt. The cation is referred to as the “counter-ion” below. […] The treatments were made up in 3 ml samples of experimental aqueous seed treatment slurry. All of the seed treatment slurry samples contained CF-Clear film-forming agent and Colorcoat Red (Becker Underwood), each at 1 oz/cwt, and 0.167 oz/cwt Maxim XL fungicide (Syngenta). The slurry application volume was 20 oz/cwt (cwt=100 lbs of seed).
One hundred gram samples of Hughes 1883 hybrid corn seed were treated with the experimental slurries using a Hege 11 seed treater with a six-inch bowl.
The seed was planted in plastic boxes containing 1 kg of typical agricultural silt loam. Fifty seeds were planted 3 cm deep in each plastic box, and the soil in the box was adjusted to 21% soil moisture (wet-weight basis). Two replications of the experiment were incubated under constant light in a 25° C. chamber and two replications incubated under constant light in an 18° C. chamber. The boxes were watered up to the correct weight daily, and checked for emergence. Daily counts of seedlings were continued until emergence ceased. The final count of emerged seedlings was expressed as a percentage of the 50 seeds planted (GERM).
The daily counts were converted to proportions of the final germination of the box, and a Gompertz curve was fitted to the data from each box using SAS Proc NLIN. From the parameters of the model, median germination time (T50) and quartile range (QR) were estimated for each box. Analysis of variance was performed and means calculated for each of the three responses (GERM, T50, QR).

Row | Compound | Final emergence (soil 18° C.) [%] | QR (soil 18° C.) [days] | T50 (soil 18° C.) [days] | Final emergence (soil 25° C.) [%] | QR (soil 25° C.) [days] | T50 (soil 25° C.) [days]
1 | CC1=CC(=O)CC(C)(C)[C@@]1(O)/C=C/C(C)=C\C(=O)O [ABA ammonium salt] | 91 | 3.52 | 11.2 | 91 | 1.34 | 7.4
2 | CC1=CC(=O)CC(C)(C)[C@@]1(O)/C=C/C(C)=C\C(=O)[O-].[Na+] [ABA sodium salt] | 92 | 3.36 | 10.9 | 92 | 1.31 | 7.1
